Reference: patent US20200390729A1, “OPHTHALMIC TOPICAL COMPOSITION COMPRISING DOBESILIC ACID FOR TREATING DISEASES OF THE POSTERIOR SEGMENT OF THE EYE” (LABORATORIOS SALVAT, S.A., priority 2017, published 2020)

System: egg chorioallantoic membrane (CAM)
Assay: Ocular irritation assay (HET-CAM)
Set-up: species or system White Leghorn chicken eggs
Conditions: 100 mg/ml, CAM observed for 5 minutes
From the text: The HET-CAM is an alternative method to the Draize Rabbit Eye Test which mimics vascular changes in the chorioallantoic membrane, an analog for ocular conjunctiva, which can be used to determine the potential irritancy of a test substance. This method is based on that described in Hen's Egg Test-Chorioallantoic Membrane (HET-CAM) Test Method (ICCVAM-Recommended Test Method Protocol, NIH Publication No. 10-7553—Published 2010)
Fertilized white SPF (special pathogen free) White Leghorn chicken eggs were incubated at 37° C. and 60% humidity up to day 10. After determination of the viability of the embryo, a rectangular window was removed from the shell directly over the air cell and the egg membrane was carefully moistened with 2-3 ml 0.9% saline. After returning to the incubator for 30 minutes, the inner membrane was removed and the test substance was applied to the CAM membrane with a pipette. Eggs were observed continuously for 5 minutes for the appearance of lysis, hemorrhage and/or coagulation and an irritation score (IS) was determined following the ICCVAM-Recommended Test Method Protocol (NIH Publication No. 10-7553-Published 2010) guideline.

| SMILES | HET-CAM irritation characterization | HET-CAM lysis, haemorrhage or coagulation processes |
| --- | --- | --- |
| CCNCC.O=S(=O)(O)c1cc(O)ccc1O [etamsylate, diethylamine 2,5-dihydroxybenzenesulfonate] | not irritating | did not trigger any lysis, haemorrhage or coagulation processes |
| O=S(=O)([O-])c1cc(O)ccc1O.[K+] [potassium dobesilate] | not irritating | did not trigger any lysis, haemorrhage or coagulation processes |
